Structures can show the parent of a compound that is named as a salt.

This assay deals with T1, 5-HT3 (Homo sapiens, UniProt P46098).
T1 sequence (P46098 24-478): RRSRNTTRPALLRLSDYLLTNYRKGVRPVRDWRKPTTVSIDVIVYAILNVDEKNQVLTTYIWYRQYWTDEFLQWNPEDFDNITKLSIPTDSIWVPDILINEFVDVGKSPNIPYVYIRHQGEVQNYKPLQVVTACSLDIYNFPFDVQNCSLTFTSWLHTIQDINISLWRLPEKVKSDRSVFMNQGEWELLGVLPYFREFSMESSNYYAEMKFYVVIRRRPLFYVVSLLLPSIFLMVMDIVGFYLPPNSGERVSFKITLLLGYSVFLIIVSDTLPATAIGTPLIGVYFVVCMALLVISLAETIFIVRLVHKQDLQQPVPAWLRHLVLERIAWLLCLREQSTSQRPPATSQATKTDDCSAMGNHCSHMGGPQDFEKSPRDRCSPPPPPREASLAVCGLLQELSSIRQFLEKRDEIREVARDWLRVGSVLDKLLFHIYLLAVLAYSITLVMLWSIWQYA
As to the kind of experiment: Compound affinity for the human 5-HT3 receptor (Assay B), SPA radioligand binding with [9-methyl-3H]BRL-43694. Also on record: purchased Perkin Elmer. As to conditions: Assay B (method B unless otherwise annotated); read-out: 5-HT3 Ki. Summed up: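 Ten competitor concentrations in duplicate; specific binding (total minus nonspecific) fitted for IC50, converted to Ki by Cheng-Prusoff.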
One may read the Ki as the dissociation constant of the complex between target and ligand, obtained from inhibition or displacement. For `CCNc1nc2c(C(=O)NC3CN4CCC3CC4)cccc2o1` [Example 104, (S)—N-(Quinulidin-8-yl)-2-ethylaminobenzoxazole-4-carboxamide Hydrochloride], the inhibitory constant (Ki) is 13.5 nM.

As to `CCNc1nc2c(C(=O)N[C@H]3C[C@H]4CCC[C@@H](C3)N4C)cccc2o1` [Example 105, Hydrochloride], the inhibition constant (Ki) was 3.3 nM.

Regarding `C[C@H]1COCCN1c1nc2c(C(=O)NC3CC4CCCC(C3)N4C)cc(Cl)cc2o1` (stereo partly drawn) [Example 106, Endo-6-Chloro-N-(9-methyl-9-azabicyclo[3.3.1]nonan-3-yl)-2-((S)-3-methylmorpholino)benzoxazole-4-carboxamide Hydrochloride], the inhibition constant Ki amounted to 12.6 nM.

As to `C[C@H]1CNC[C@H](C)N1c1nc2c(C(=O)NC3CC4CCCC(C3)N4C)ccc(F)c2o1` (stereo partly drawn) [Example 107, Endo-N-(9-Methyl-9-azabicyclo[3.3.1]nonan-3-yl)-2-((2S,6S)-2,6-dimethylpiperazine-1-yl)-7-fluorobenzoxazole-4-carboxamide hydrochloride], the Ki is 14.2 nM.

Take `CN(C)c1nc2c(C(=O)N[C@@H]3CN4CCC3CC4)cc(Cl)cc2o1` [Example 108, (S)—N-(quinuclidine-8-yl)-6-chloro-2-(dimethylamino)benzoxazole-4-carboxamide Hydrochloride]: the inhibition constant (Ki) came to 14.4 nM.

For `O=C(NC1CN2CCC1CC2)c1cccc2oc(NCC(F)(F)F)nc12` (stereo not drawn) [Example 109, Hydrochloride], the Ki worked out at 47.9 nM.

As to `CC(=O)N1C[C@H](C)N(c2nc3c(C(=O)NC4CC5CCCC(C4)N5C)cccc3o2)[C@@H](C)C1` (stereo partly drawn) [Example 110, Endo-N-(9-Methyl-9-azabicyclo[3.3.1]nonan-3-yl)-2-((2S,6S)-4-acetyl-2,6-dimethylpiperazin-1-yl)benzoxazole-4-carboxamide Hydrochloride], the inhibitory constant (Ki) was 2.2 nM.

On to `CN1[C@@H]2CCC[C@H]1C[C@@H](NC(=O)c1cc(Cl)cc3oc(N)nc13)C2` [Example 111, Endo-2-amino-6-chloro-N-(9-Methyl-9-azabicyclo[3.3.1]nonan-3-yl)benzoxazole-4-carboxamide Hydrochloride], for which the inhibition constant (Ki) was 2 nM.

As for `Nc1nc2c(C(=O)NC3CN4CCC3CC4)ccc(F)c2o1` [Example 112, (S)—N-(quinulidin-8-yl)-2-amino-7-fluorobenzoxazole-4-carboxamide Hydrochloride], the Ki was 33.3 nM.

Consider `CNc1nc2c(C(=O)NC3CN4CCC3CC4)cccc2o1` [Example 113, (S)—N-(quinulidin-8-yl)-2-methylaminobenzoxazole-4-carboxamide Hydrochloride], for which the inhibitory constant (Ki) came to 14.5 nM.

On to `C[C@H]1CNC[C@H](C)N1c1nc2c(C(=O)NC3CC4CCCC(C3)N4C)cc(Cl)cc2o1` (stereo partly drawn) [Example 114, Endo-N-(9-methyl-9-azabicyclo[3.3.1]nonan-3-yl)-6-chloro-2-((2S,6S)-2,6-dimethylpiperazin-1-yl)benzoxazole-4-carboxamide Hydrochloride], for which the Ki came out at 6.6 nM.

In the case of `CCN(CC)c1nc2c(C(=O)N[C@@H]3CN4CCC3CC4)cccc2o1` [Example 115, (S)—N-(quinuclidine-8-yl)-2-diethylaminobenzoxazole-4-carboxamide Hydrochloride], the inhibition constant (Ki) worked out at 4.8 nM.

`C[C@H]1CN(C(=O)c2ccccc2)C[C@H](C)N1c1nc2c(C(=O)NC3CC4CCCC(C3)N4C)cccc2o1` (stereo partly drawn) [Example 117, Endo-N-(9-methyl-9-azabicyclo[3.3.1]nonan-3-yl)-2-((2S,6S)-4-benzoyl-2,6-dimethylpiperazin-1-yl)benzoxazole-4-carboxamide Hydrochloride]: the inhibitory constant (Ki) was found to be 2.3 nM.

Regarding `C[C@H]1CNC[C@H](C)N1c1nc2c(C(=O)NC3CN4CCC3CC4)ccc(F)c2o1` (stereo partly drawn) [Example 118, (S)—N-(Quinulidin-8-yl)-2-((2S,6S)-2,6-dimethylpiperazine-1-yl)-7-fluorobenzoxazole-4-carboxamide hydrochloride], the inhibitory constant (Ki) is 26.8 nM.

On to `C[C@H]1CN(CC2CC2)C[C@H](C)N1c1nc2c(C(=O)NC3CC4CCCC(C3)N4C)cccc2o1` (stereo partly drawn) [Example 119, Endo-N-(9-methyl-9-azabicyclo[3.3.1]nonan-3-yl)-2-((2S,6S)-4-(cyclopropylmethyl)-2,6-dimethylpiperazin-1-yl)benzoxazole-4-carboxamide Hydrochloride], for which the Ki was found to be 6.6 nM.

Regarding `C[C@H]1CN(C)C(=O)[C@H](C)N1c1nc2c(C(=O)NC3CC4CCCC(C3)N4C)cccc2o1` (stereo partly drawn) [Example 120, Endo-N-(9-methyl-9-azabicyclo[3.3.1]nonan-3-yl)-2-((2S,6S)-2,4,6-trimethyl-3-oxopiperazine-1-yl)benzoxazole-4-carboxamide Hydrochloride], the inhibition constant (Ki) turned out to be 1.9 nM.

Take `CN1[C@@H]2CCC[C@H]1C[C@@H](NC(=O)c1cc(F)cc3oc(N)nc13)C2` [Example 121, Endo-2-amino-6-fluoro-N-(9-Methyl-9-azabicyclo[3.3.1]nonan-3-yl)benzoxazole-4-carboxamide Hydrochloride]: the inhibition constant Ki amounted to 9 nM.

Take `C[C@H]1CN(C)C[C@H](C)N1c1nc2c(C(=O)NC3CC4CCCC(C3)N4C)cccc2o1` (stereo partly drawn) [Example 122, Endo-N-(9-methyl-9-azabicyclo[3.3.1]nonan-3-yl)-2-((2S,6S-2,4,6-trimethylpiperazin-1-yl)benzoxazole-4-carboxamide Hydrochloride]: the inhibition constant (Ki) was 2.3 nM.

For `C[C@H]1CS(=O)(=O)C[C@H](C)N1c1nc2c(C(=O)NC3CC4CCCC(C3)N4C)cccc2o1` (stereo partly drawn) [Example 123, Endo-N-(9-methyl-9-azabicyclo[3.3.1]nonan-3-yl)-2-((3S,5S)/(3R,5R)-3,5-dimethylthiomorpholine 1,1-dioxide)benzoxazole-4-carboxamide Hydrochloride], the Ki is 57 nM.

Take `C[C@H]1CN(C)C(=O)[C@H](C)N1c1nc2c(C(=O)NC3CN4CCC3CC4)cccc2o1` (stereo partly drawn) [Example 124, N-(Quinuclidine-8-yl)-2-((2S,6S)-2,4,6-trimethyl-3-oxopiperazine-1-yl)benzoxazole-4-carboxamide Hydrochloride]: the Ki turned out to be 17.7 nM.

As to `COC(=O)N1C[C@H](C)N(c2nc3c(C(=O)NC4CC5CCCC(C4)N5C)cccc3o2)[C@@H](C)C1` (stereo partly drawn) [Example 125, Endo-(3S,5S)-Methyl 3,5-dimethyl-4-(4-(9-methyl-9-azabicyclo[3.3.1]nonan-3-ylcarbamoyl)benzoxazol-2-yl)piperazine-1-carboxylate Hydrochloride], the Ki is 2.1 nM.

For `CN1C2CCCC1CC(NC(=O)c1cccc3oc(N4CCN[C@H]5CCCC[C@@H]54)nc13)C2` (stereo partly drawn) [Example 126, Endo-N-(9-Methyl-9-azabicyclo[3.3.1]nonan-3-yl)-2-((4aS,8aS)-octahydroquinoxalin-1(2H)-yl)benzoxazole-4-carboxamide Dihydrochloride], the Ki was 16.5 nM.

As for `Cc1cc(C(=O)NC2CN3CCC2CC3)c2nc(N)oc2c1` [Example 127, (S)—N-(quinulidin-8-yl)-2-amino-6-methylbenzoxazole-4-carboxamide Hydrochloride], the inhibition constant Ki stood at 20 nM.

Consider `CN1[C@@H]2CCC[C@H]1C[C@@H](NC(=O)c1c(F)ccc3oc(N)nc13)C2` [Example 128, Endo-N-(9-Methyl-9-azabicyclo[3.3.1]nonan-3-yl)-2-amino-5-fluorobenzoxazole-4-carboxamide Hydrochloride], for which the inhibitory constant (Ki) worked out at 124 nM.
